In US7538132B2, “Isoxazolo derivatives” (Hoffman-La Roche Inc., priority 2005, dated 2009):

Target: T1, GABA A receptor α5β3γ2 (hα5) (Homo sapiens, UniProt P18507+P31644)
T1 construct: expressed in transfected cells; host or cells: HEK293 (transiently transfected; membranes prepared from cell pellets)
Assay: [3H]flumazenil competition binding assay, human GABA A α5β3γ2 receptors
Settings: displacement of [3H]flumazenil (0.5 nM) from membranes of HEK293 cells expressing human α5β3γ2; 1 hour at 4° C.; means of two determinations
Protocol: The affinity of compounds at GABA A receptor subtypes was measured by competition for [3H]flumazenil (85 Ci/mmol; Roche) binding to HEK293 cells expressing rat (stably transfected) or human (transiently transfected) receptors of composition α1β3γ2, α2⊖3γ2, α3β3γ2 and α5β3γ2.
Cell pellets were suspended in Krebs-tris buffer (4.8 mM KCl, 1.2 mM CaCl2, 1.2 mM MgCl2, 120 mM NaCl, 15 mM Tris; pH 7.5; binding assay buffer), homogenized by polytron for ca. 20 sec on ice and centrifuged for 60 min at 4° C. (50000 g; Sorvall, rotor: SM24=20000 rpm). The cell pellets were resuspended in Krebs-tris buffer and homogenized by polytron for ca. 15 sec on ice. Protein was measured (Bradford method, Bio-Rad) and aliquots of 1 mL were prepared and stored at −80° C.
Assays were incubated to equilibrium for 1 hour at 4° C. and harvested onto GF/C uni-filters (Packard) by filtration using a Packard harvester and washing with ice-cold wash buffer (50 mM Tris; pH 7.5). After drying, filter-retained radioactivity was detected by liquid scintillation counting. Ki values were calculated using Excel-Fit (Microsoft) and are the means of two determinations.

First: Cc1onc(-c2ccccc2)c1C(=O)c1c[nH]c(C(=O)NCC2CC2)c1 [Example 12, 4-(5-Methyl-3-phenyl-isoxazole-4-carbonyl)-1H-pyrrole-2-carboxylic acid cyclopropylmethyl-amide]
Second: CCc1onc(-c2ccccc2)c1C(=O)c1c[nH]c(C(=O)NCC2CC2)c1 [Example 216, 4-(5-Ethyl-3-phenyl-isoxazole-4-carbonyl)-1H-pyrrole-2-carboxylic acid cyclopropylmethyl-amide]
The Ki of the first is 2.9-fold higher: 0.0066 µM for the first, 0.0023 µM for the second.

Compared with Cc1onc(-c2ccccc2)c1C(=O)c1c[nH]c(C(=O)NC2CCC2)c1 [Example 15, 4-(5-Methyl-3-phenyl-isoxazole-4-carbonyl)-1H-pyrrole-2-carboxylic acid cyclobutylamide], Cc1onc(-c2ccccc2)c1C(=O)c1c[nH]c(C(=O)NC2CCOCC2)c1 [Example 26, 4-(5-Methyl-3-phenyl-isoxazole-4-carbonyl)-1H-pyrrole-2-carboxylic acid (tetrahydro-pyran-4-yl)-amide] is 2.8-fold lower in Ki: 0.00795 µM for the first, 0.00285 µM for the second.

Compared with Cc1onc(-c2ccc(Br)cc2)c1C(=O)c1c[nH]c(C(=O)NC2CCOCC2)c1 [Example 61, 4-[3-(4-Bromo-phenyl)-5-methyl-isoxazole-4-carbonyl]-1H-pyrrole-2-carboxylic acid (tetrahydro-pyran-4-yl)-amide], Cc1onc(-c2ccc(F)cc2)c1C(=O)c1c[nH]c(C(=O)NC2CCOCC2)c1 [Example 146, 4-[3-(4-Fluoro-phenyl)-5-methyl-isoxazole-4-carbonyl]-1H-pyrrole-2-carboxylic acid (tetrahydro-pyran-4-yl)-amide] is 2.4-fold lower in Ki: 0.00365 µM for the first, 0.00155 µM for the second.

Compared with Cc1onc(-c2ccc(Br)cc2)c1C(=O)c1c[nH]c(C(=O)NC(C)C)c1 [Example 84, 4-[3-(4-Bromo-phenyl)-5-methyl-isoxazole-4-carbonyl]-1H-pyrrole-2-carboxylic acid isopropylamide], Cc1onc(-c2ccc(Br)cc2)c1C(=O)c1c[nH]c(C(=O)NC2CCOC(C)(C)C2)c1 (centres unmarked) [Example 135, 4-[3-(4-Bromo-phenyl)-5-methyl-isoxazole-4-carbonyl]-1H-pyrrole-2-carboxylic acid (2,2-dimethyl-tetrahydro-pyran-4-yl)-amide] is 1.5-fold lower in Ki: 0.00685 µM for the first, 0.0045 µM for the second. The second binds more tightly here.

Cc1onc(-c2ccc(Br)cc2)c1C(=O)c1c[nH]c(C(=O)N[C@H]2CC[C@H](O)CC2)c1 [Example 123, 4-[3-(4-Bromo-phenyl)-5-methyl-isoxazole-4-carbonyl]-1H-pyrrole-2-carboxylic acid (4-hydroxy-cyclohexyl)-amide] and Cc1onc(-c2ccc(F)cc2)c1C(=O)c1c[nH]c(C(=O)NC2CC2)c1 [Example 137, 4-[3-(4-Fluoro-phenyl)-5-methyl-isoxazole-4-carbonyl]-1H-pyrrole-2-carboxylic acid cyclopropylamide] are within 1.5-fold of each other in Ki: 0.0045 µM for the first, 0.0041 µM for the second.

Compared with Cc1onc(-c2ccc(F)cc2)c1C(=O)c1c[nH]c(C(=O)NC2CCCC2)c1 [Example 136, 4-[3-(4-Fluoro-phenyl)-5-methyl-isoxazole-4-carbonyl]-1H-pyrrole-2-carboxylic acid cyclopentylamide], Cc1onc(-c2ccc(F)cc2)c1C(=O)c1c[nH]c(C(=O)NC2CCC2)c1 [Example 138, 4-[3-(4-Fluoro-phenyl)-5-methyl-isoxazole-4-carbonyl]-1H-pyrrole-2-carboxylic acid cyclobutylamide] is 2.2-fold higher in Ki: 0.00165 µM for the first, 0.0036 µM for the second.

Cc1onc(-c2ccc(F)cc2)c1C(=O)c1c[nH]c(C(=O)NCCO)c1 [Example 140, 4-[3-(4-Fluoro-phenyl)-5-methyl-isoxazole-4-carbonyl]-1H-pyrrole-2-carboxylic acid (2-hydroxy-ethyl)-amide] and Cc1onc(-c2ccc(Cl)cc2)c1C(=O)c1c[nH]c(C(=O)NCCO)c1 [Example 153, 4-[3-(4-Chloro-phenyl)-5-methyl-isoxazole-4-carbonyl]-1H-pyrrole-2-carboxylic acid (2-hydroxy-ethyl)-amide] are within 1.5-fold of each other in Ki: 0.0099 µM for the first, 0.00755 µM for the second.

Cc1onc(-c2ccc(F)cc2)c1C(=O)c1c[nH]c(C(=O)NCCc2cnc[nH]2)c1 [Example 141, 4-[3-(4-Fluoro-phenyl)-5-methyl-isoxazole-4-carbonyl]-1H-pyrrole-2-carboxylic acid [2-(1H-imidazol-4-yl)-ethyl]-amide] and C#CCNC(=O)c1cc(C(=O)c2c(-c3ccc(F)cc3)noc2C)c[nH]1 [Example 145, 4-[3-(4-Fluoro-phenyl)-5-methyl-isoxazole-4-carbonyl]-1H-pyrrole-2-carboxylic acid prop-2-ynylamide] are within 1.5-fold of each other in Ki: 0.00605 µM for the first, 0.00775 µM for the second.

Cc1onc(-c2ccc(Cl)cc2)c1C(=O)c1c[nH]c(C(=O)NC2CCCC2)c1 [Example 152, 4-[3-(4-Chloro-phenyl)-5-methyl-isoxazole-4-carbonyl]-1H-pyrrole-2-carboxylic acid cyclopentylamide] and Cc1onc(-c2ccc(Cl)cc2)c1C(=O)c1c[nH]c(C(=O)NC2CC2)c1 [Example 154, 4-[3-(4-Chloro-phenyl)-5-methyl-isoxazole-4-carbonyl]-1H-pyrrole-2-carboxylic acid cyclopropylamide] are within 1.5-fold of each other in Ki: 0.0052 µM for the first, 0.0061 µM for the second.

Compared with Cc1onc(-c2ccc(Cl)cc2)c1C(=O)c1c[nH]c(C(=O)NCC2CC2)c1 [Example 156, 4-[3-(4-Chloro-phenyl)-5-methyl-isoxazole-4-carbonyl]-1H-pyrrole-2-carboxylic acid cyclopropylmethyl-amide], C#CCNC(=O)c1cc(C(=O)c2c(-c3ccc(Cl)cc3)noc2C)c[nH]1 [Example 157, 4-[3-(4-Chloro-phenyl)-5-methyl-isoxazole-4-carbonyl]-1H-pyrrole-2-carboxylic acid prop-2-ynylamide] is 1.9-fold higher in Ki: 0.00385 µM for the first, 0.00745 µM for the second. The first binds more tightly here.

Going from Cc1onc(-c2ccc(Cl)cc2)c1C(=O)c1c[nH]c(C(=O)NCc2ccco2)c1 [Example 160, 4-[3-(4-Chloro-phenyl)-5-methyl-isoxazole-4-carbonyl]-1H-pyrrole-2-carboxylic acid (furan-2-ylmethyl)-amide] to Cc1onc(-c2ccc(Cl)cc2)c1C(=O)c1c[nH]c(C(=O)NC2CCOCC2)c1 [Example 162, 4-[3-(4-Chloro-phenyl)-5-methyl-isoxazole-4-carbonyl]-1H-pyrrole-2-carboxylic acid (tetrahydro-pyran-4-yl)-amide], the Ki falls from 0.0069 µM to 0.0014 µM (4.9-fold). The second binds more tightly here.

Cc1onc(-c2ccccc2F)c1C(=O)c1c[nH]c(C(=O)NC2CCCC2)c1 [Example 173, 4-[3-(2-Fluoro-phenyl)-5-methyl-isoxazole-4-carbonyl]-1H-pyrrole-2-carboxylic acid cyclopentylamide] and Cc1onc(-c2cccc(F)c2)c1C(=O)c1c[nH]c(C(=O)NC2CCCC2)c1 [Example 178, 4-[3-(3-Fluoro-phenyl)-5-methyl-isoxazole-4-carbonyl]-1H-pyrrole-2-carboxylic acid cyclopentylamide] are within 1.5-fold of each other in Ki: 0.0063 µM for the first, 0.0061 µM for the second.

Going from CCc1onc(-c2ccccc2)c1C(=O)c1c[nH]c(C(=O)NC2CCOCC2)c1 [Example 210, 4-(5-Ethyl-3-phenyl-isoxazole-4-carbonyl)-1H-pyrrole-2-carboxylic acid (tetrahydro-pyran-4-yl)-amide] to CCc1onc(-c2ccccc2)c1C(=O)c1c[nH]c(C(=O)NC2CC2)c1 [Example 217, 4-(5-Ethyl-3-phenyl-isoxazole-4-carbonyl)-1H-pyrrole-2-carboxylic acid cyclopropylamide], the Ki rises from 0.00245 µM to 0.00485 µM (2-fold). The first binds more tightly here.

Compared with CCc1onc(-c2ccccc2)c1C(=O)c1c[nH]c(C(=O)NC2CCCC2)c1 [Example 215, 4-(5-Ethyl-3-phenyl-isoxazole-4-carbonyl)-1H-pyrrole-2-carboxylic acid cyclopentylamide], Cc1onc(-c2ccc(F)c(F)c2)c1C(=O)c1c[nH]c(C(=O)NC2CCCC2)c1 [Example 255, 4-[3-(3,4-Difluoro-phenyl)-5-methyl-isoxazole-4-carbonyl]-1H-pyrrole-2-carboxylic acid cyclopentylamide] is 3-fold higher in Ki: 0.0021 µM for the first, 0.0064 µM for the second.

COCc1onc(-c2ccc(F)cc2)c1C(=O)c1c[nH]c(C(=O)NC2CCOCC2)c1 [Example 221, 4-[3-(4-Fluoro-phenyl)-5-methoxymethyl-isoxazole-4-carbonyl]-1H-pyrrole-2-carboxylic acid (tetrahydro-pyran-4-yl)-amide] and Cc1onc(-c2ccc(F)c(F)c2)c1C(=O)c1c[nH]c(C(=O)NC2CCOCC2)c1 [Example 254, 4-[3-(3,4-Difluoro-phenyl)-5-methyl-isoxazole-4-carbonyl]-1H-pyrrole-2-carboxylic acid (tetrahydro-pyran-4-yl)-amide] are within 1.5-fold of each other in Ki: 0.0043 µM for the first, 0.0042 µM for the second.

Cc1onc(-c2ccc(Br)cc2)c1C(=O)c1cc(C(=O)NC2CCOCC2)n(C)c1 [Example 231, 4-[3-(4-Bromo-phenyl)-5-methyl-isoxazole-4-carbonyl]-1-methyl-1H-pyrrole-2-carboxylic acid (tetrahydro-pyran-4-yl)-amide] and Cc1onc(-c2ccc(Br)cc2)c1C(=O)c1cc(C(=O)NCCCN2CCOCC2)n(C)c1 [Example 232, 4-[3-(4-Bromo-phenyl)-5-methyl-isoxazole-4-carbonyl]-1-methyl-1H-pyrrole-2-carboxylic acid (3-morpholin-4-yl-propyl)-amide] are within 1.5-fold of each other in Ki: 0.008 µM for the first, 0.0087 µM for the second.
